Literature values as cited in patent publication US20240415880A1, “Treatment of Breast and Other Cancers Using Zinc Chloride Instead of Radiation” (priority 2023, published 2024).

How the values were obtained:
[1] = tested on: advanced melanomas; details: 103 consecutive advanced melanomas; zinc chloride combined with surgery
[2] = tested on: locally advanced breast cancer tumors; details: case presentations
[3] = tested on: cancers of the mouth, accessory nasal sinuses, larynx, parotid and other salivary glands, anal region, vulva and accessible sarcomas

[Cl-].[Cl-].[Zn+2] [zinc chloride, Zinc chloride]
improvement in cure rates over conventional surgery of melanomas [1]: significant and statistical (p=0.003) improvement | healing of locally advanced breast cancer tumors [2]: remarkable healing | treatment outcome of cancers [3]: successfully treated
